Measured values: patent US8252740B2, “Thermally-targeted delivery of medicaments including doxorubicin” (The University of Mississippi Medical Center, priority 2006, dated 2012)

Test system: MES-SA uterine sarcoma cells
Test: Polypeptide uptake by flow cytometry of Dox fluorescence
Assay type: cell-based, human
Procedure: In order to test whether the induction of ELP aggregation with hyperthermia can enhance the cellular uptake of the polypeptide, MES-SA uterine sarcoma cells were incubated with Tat-ELP-GFLG-DOX (SEQ ID NO: 3) for 1 h at either 37 or 42° C. Cells were then analyzed by flow cytometry, using the natural DOX fluorescence to quantify the amount of drug in the cells. When treated with the ELP1 containing construct, which aggregates at 40° C., the amount of drug delivered to the cells increases almost 2-fold (FIG. 10). […] This illustrates that the enhanced uptake observed after hyperthermia is the result of the ELP phase transition, not nonspecific effects of hyperthermia.
1.6. Polypeptide Uptake. Cells were treated with 20 μM Tat-ELP1-GFLG-Dox (SEQ ID NO: 3), Tat-ELP2-GFLG-Dox (SEQ ID NO: 3), or control polypeptides lacking the Tat sequence as described above. Duplicate plates were treated for 1 h at 37° C. and 42° C. Cells were rinsed with PBS and harvested using nonenzymatic cell dissociation buffer (Invitrogen), centrifuged for 2 min, and resuspended in 0.5 ml PBS. Total uptake of the doxorubicin labeled polypeptides was measured using the intrinsic Dox fluorescence by a Cytomics FC 500 flow cytometer (Beckman Coulter, Fullerton, Calif.). Forward versus side scatter gating was used to remove cell debris from the analysis, and Dox fluorescence was measured using FL3. Each histogram was a unimodal peak (n=5000 cells), and the peak mean was normalized to propidium standard beads.
3.3. Cellular Uptake of ELP-delivered Doxorubicin. MES-SA uterine sarcoma cells were used in this study to evaluate the efficiency of ELP-mediated cellular delivery of doxorubicin. […] After harvesting the cells with non-enzymatic cell dissociation buffer to prevent degradation of polypeptide attached to the cell surface, the non-fixed cells were analyzed by flow cytometry to measure the Dox fluorescence. […] Cellular fluorescence was increased over 2 fold when the MES-SA cells were treated with Tat-ELP1-GFLG-Dox (SEQ ID NO: 3) at 42° C. rather than 37° C. […]

Substance: Tat-ELP1-GFLG-Dox
- Increase of drug delivered to cells at 42° C. versus 37° C. (10 μM, 1 h (FIG. 10)): ~2 fold
- Increase of cellular fluorescence at 42° C. versus 37° C. (20 μM, 1 h): over 2 fold
- Uptake relative to ELP1-GFLG-Dox (20 μM, 1 h, 42° C.): 6 fold
